# Key:
# M. tuberculosis = assay: Bactericidal activity; format: cell-based
# M. chelonae = assay: MIC determination, CLSI M24-A; format: cell-based; settings: Mycobacteroides chelonae, range over compounds and species, read-out: MIC90 (concentration which inhibits 90% of strains)
# [1] = test system: azithromycin-, doxycycline, and sulfamethoxazole-resistant M. abscessus; assay: MIC against drug-resistant strains; format: cell-based; settings: for MIC: Mycobacteroides abscessus, clinically relevant resistant strains, M. abscessus, range over compounds and strains; for activity against resistant strains: azithromycin-, doxycycline, and sulfamethoxazole-resistant M. abscessus
# M. abscessus [2] = assay: Bactericidal activity; format: cell-based
# M. fortuitum = assay: MIC determination, CLSI M24-A; format: cell-based; settings: Mycolicibacterium fortuitum, range over compounds and species, read-out: MIC90 (concentration which inhibits 90% of strains)
# M. abscessus [3] = assay: MIC determination, CLSI M24-A; format: cell-based; settings: Mycobacteroides abscessus; for MIC90: range over compounds and species, read-out: MIC90 (concentration which inhibits 90% of strains); for MIC: CLSI M24-A
# Mabs #21 = assay: 28-day mouse model of chronic NTM lung infection, efficacy; format: in vivo, M. abscessus; settings: GM-CSF KO mice; 25 mg/kg once daily over 4 weeks, intratracheal microspray, 5% corn oil/saline emulsion
# [4] = mouse, in vivo
# physchem = settings: oil or lipid
# Mabs ATCC19977 = format: cell-based; settings: isolated at 4×MIC on 7H11-ADC agar
# proton motive force = assay: Membrane potential and electrochemical pH gradient monitoring; format: cell-based; settings: Mtb intact cells and inverted membrane vesicles; data not shown
Compound,MIC [1],activity against resistant strains [1],MIC (M. abscessus [3]),other results
"CC12CCCC(C(=O)Nc3nc4cc(Cl)cc(Cl)c4s3)(CCC1)C2 [Example 2, N-(5,7-dichloro-1,3-benzothiazol-2-yl)-5-methylbicyclo[3.3.1]nonane-1-carboxamide]",0.03 to 4 µg/mL,active,,bactericidal effect (M. tuberculosis): bactericidal; MIC90 (M. chelonae): 0.12 to 1 µg/mL; bactericidal effect (M. abscessus [2]): bactericidal; MIC90 (M. fortuitum): 0.12 to 1 µg/mL; MIC90 (M. abscessus [3]): 0.12 to 1 µg/mL
"CC1CC(C(=O)Nc2nc3ccc(OC(F)(F)F)cc3s2)CC(C)(C)C1 (stereo not shown) [Example 46, 3,3,5-trimethyl-N-[6-(trifluoromethoxy)-1,3-benzothiazol-2-yl]cyclohexane-1-carboxamide]",0.03 to 4 µg/mL,active,,
"CC12CC3CC(C)(C1)CC(C(=O)Nc1nc4ccc(OC(F)(F)F)cc4s1)(C3)C2 [Example 45, 3,5-dimethyl-N-[6-(trifluoromethoxy)-1,3-benzothiazol-2-yl]adamantane-1-carboxamide]",0.03 to 4 µg/mL,active,,lung bacterial load (CFU) versus vehicle control (Mabs #21): statistically significant CFU reduction; MIC90 (M. chelonae): 0.12 to 1 µg/mL; MIC90 (M. fortuitum): 0.12 to 1 µg/mL; tolerability [4]: very well tolerated; MIC90 (M. abscessus [3]): 0.12 to 1 µg/mL; solubility (physchem): ≤ 250 mg/mL
"CC1CC(C(=O)Nc2nc3ccc(C(F)(F)F)cc3s2)CC(C)(C)C1 (stereo not shown) [Example 79, 3,3,5-trimethyl-N-[6-(trifluoromethyl)-1,3-benzothiazol-2-yl]cyclohexane-1-carboxamide]",,,,"mutations found in spontaneous-resistant mutants (Mabs ATCC19977): non-synonymous mutations in their mmpL3 gene (L551S, I306S, A309P)"
"CC12CCCC(C(=O)Nc3nc4ccc(OC(F)(F)F)cc4s3)(CCC1)C2 [Example 5, 5-methyl-N-[6-(trifluoromethoxy)-1,3-benzothiazol-2-yl]bicyclo[3.3.1]nonane-1-carboxamide]",0.03 to 4 µg/mL,active,,MIC90 (M. chelonae): 0.12 to 1 µg/mL; MIC90 (M. fortuitum): 0.12 to 1 µg/mL; MIC90 (M. abscessus [3]): 0.12 to 1 µg/mL
"CC1CC(C(=O)Nc2nc3c(F)cc(F)cc3s2)CC(C)(C)C1 (stereo not shown) [Example 80, N-(4,6-difluoro-1,3-benzothiazol-2-yl)-3,3,5-trimethylcyclohexane-1-carboxamide]",0.03 to 4 µg/mL,active,,"mutations found in spontaneous-resistant mutants (Mabs ATCC19977): non-synonymous mutations in their mmpL3 gene (L551S, I306S, A309P); effect on proton motive force (membrane potential, electrochemical pH gradient) (proton motive force): did not result from the collapse of the proton motive force"
"COc1ccc2nc(NC(=O)C34CC5CC(C)(CC(C)(C5)C3)C4)oc2c1 [Example 145, N-(6-methoxy-1,3-benzoxazol-2-yl)-3,5-dimethyladamantane-1-carboxamide]",,,2 to 32 µg/mL,
"O=C(Nc1nc2ccc(C(F)(F)F)cc2s1)C1CCC2(CC1)CC2 [Example 192, N-[6-(trifluoromethyl)-1,3-benzothiazol-2-yl]spiro[2.5]octane-6-carboxamide]",,,2 to 32 µg/mL,
"CC1(C(=O)Nc2nc3ccc(OC(F)(F)F)cc3s2)CC2CCC1C2 (stereo not shown) [Example 104, 2-methyl-N-[6-(trifluoromethoxy)-1,3-benzothiazol-2-yl]bicyclo[2.2.1]heptane-2-carboxamide]",,,2 to 32 µg/mL,
"CC12CC3CC(C)(C1)CC(C(=O)Nc1nc4ccc(C(F)(F)F)cc4o1)(C3)C2 [Example 150, 3,5-dimethyl-N-[6-(trifluoromethyl)-1,3-benzoxazol-2-yl]adamantane-1-carboxamide]",,,2 to 32 µg/mL,
"CC1(C(=O)Nc2nc3ccc(C(F)(F)F)cc3s2)CCCC1 [Example 128, 1-methyl-N-[6-(trifluoromethyl)-1,3-benzothiazol-2-yl]cyclopentane-1-carboxamide]",,,2 to 32 µg/mL,
"CC1CC(C(=O)Nc2nc3ccc(F)cc3[nH]2)CC(C)(C)C1 (stereo not shown) [Example 178, N-(6-fluoro-1H-1,3-benzodiazol-2-yl)-3,3,5-trimethylcyclohexane-1-carboxamide]",,,2 to 32 µg/mL,
"O=C(Nc1nc2ccccc2o1)C1CC2CCCC(C2)C1 (stereo not shown) [Example 159, N-(1,3-benzoxazol-2-yl)bicyclo[3.3.1]nonane-3-carboxamide]",,,2 to 32 µg/mL,
"O=C(Nc1cc2ccccc2s1)C1CCCCCC1 [Example 160, N-(1-benzothiophen-2-yl)cycloheptanecarboxamide]",,,2 to 32 µg/mL,
"O=C(Nc1nc2ccc(C(F)(F)F)cc2s1)C1CCCC(C(F)(F)F)C1 (stereo not shown) [Example 126, 3-(trifluoromethyl)-N-[6-(trifluoromethyl)-1,3-benzothiazol-2-yl]cyclohexane-1-carboxamide]",,,2 to 32 µg/mL,
"CC12CC3CC(C)(C1)CC(C(=O)Nc1nc4ccccc4o1)(C3)C2 [Example 147, N-(1,3-benzoxazol-2-yl)-3,5-dimethyladamantane-1-carboxamide]",,,2 to 32 µg/mL,

# Reference: US11655225B2, “Antimycobacterial heterocyclic amides” (Crestone, Inc., priority 2018, dated 2023)
